Laboratory results published in the NIST ThermoML archive (doi:10.1021/je0604232).

Experiment: molar heat capacity at constant pressure; xn = mol fraction of the nth substance listed
Conditions: 101 kPa, Liquid

CNCCO [2-(methylamino)ethanol] + O
molar heat capacity at constant pressure [J/K/mol]
Conditions	x1 = 0.1	x1 = 0.1998	x1 = 0.3003	x1 = 0.399	x1 = 0.5002	x1 = 0.6061	x1 = 0.6987	x1 = 0.8003	x1 = 0.9004	x1 = 1
303.15 K	96	108	119	129	139	151	160	172	182	194
308.15 K	98	111	122	132	143	155	165	176	187	199
313.15 K	99	113	124	135	146	157	167	178	189	200
318.15 K	100	114	126	137	148	160	170	180	190	202
323.15 K	101	116	128	139	150	162	172	183	192	203
328.15 K	103	118	131	142	153	165	175	185	195	205
333.15 K	105	121	134	145	157	168	178	188	197	206
338.15 K	107	124	138	149	161	172	182	191	199	207
343.15 K	110	127	141	153	164	176	185	194	201	208
348.15 K	114	132	146	158	169	181	190	198	205	210
353.15 K	119	138	152	163	174	186	195	203	208	212
